From PubChem BioAssay AID1645865 (Buhrlage Lab, Dana-Farber Cancer Institute and Novartis …, 2021)
The source made the active and inactive calls.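 The calls were made as follows: active = maximal inhibition of the USP30 enzyme reaching 30% or more across the dose series; inactive = the rest.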

biological target: Ubiquitin carboxyl-terminal hydrolase 30 (Homo sapiens) (UniProt Q70CQ3); assay: ubiquitin-specific protease 30 DUB inhibitors, concentration-effect, biochemical, validation of primary actives (AID 1645865); settings: purified USP30, Ub-rhodamine cleavage, fluorescence, 2 h
Sequence (Q70CQ3 whole entry, looked up): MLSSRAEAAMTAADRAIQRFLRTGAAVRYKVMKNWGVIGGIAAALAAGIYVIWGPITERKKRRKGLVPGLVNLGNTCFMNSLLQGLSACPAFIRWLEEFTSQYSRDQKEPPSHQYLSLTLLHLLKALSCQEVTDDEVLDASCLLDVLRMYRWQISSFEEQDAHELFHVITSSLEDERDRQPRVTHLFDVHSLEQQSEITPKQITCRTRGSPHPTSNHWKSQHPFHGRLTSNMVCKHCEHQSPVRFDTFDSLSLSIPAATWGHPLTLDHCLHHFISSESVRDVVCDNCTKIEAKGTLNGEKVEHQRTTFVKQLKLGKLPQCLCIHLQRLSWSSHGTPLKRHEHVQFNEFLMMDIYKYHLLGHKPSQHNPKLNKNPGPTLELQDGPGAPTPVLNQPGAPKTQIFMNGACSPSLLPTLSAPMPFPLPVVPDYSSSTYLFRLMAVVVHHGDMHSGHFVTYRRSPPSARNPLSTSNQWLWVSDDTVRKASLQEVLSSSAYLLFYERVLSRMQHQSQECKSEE

IC50 | Compound
21.7 µM | O=C(CNC(=O)c1cccc(F)c1)Nc1nc2ccccc2[nH]1
> 50 µM (inactive) | Cc1ccc(Cl)cc1NC(=O)COC(=O)c1ccc2ccccc2n1
> 50 µM (inactive) | COc1ccc(C(=O)Nc2cc(-c3ccccn3)no2)cn1
0.164 µM | COc1ccc(Cl)cc1NC(=O)c1cc(-c2ccccn2)n[nH]1
> 50 µM (inactive) | O=C(COC(=O)CCc1ccc(S(=O)(=O)N2CCOCC2)cc1)Nc1ccc2c(c1)OCCO2
25.2 µM | COc1cccc(-n2c(CNCc3cccnc3)nc3ccc([N+](=O)[O-])cc3c2=O)c1
2.71 µM | Cc1ccc2c(c1)N(C)C(=O)c1cc(NC(=O)c3ccc(F)cc3)ccc1O2
> 50 µM (inactive) | COc1ccc(S(=O)(=O)N2CCN3Cc4ccccc4N(C)CC3C2)cc1 (stereo not given)
> 50 µM (inactive) | CC(=O)c1ccc(NC(=O)/C(=C/c2ccco2)n2nnnc2-c2ccccc2)cc1
> 50 µM (inactive) | Cn1c(C(=O)NCc2ccccn2)cc2c(=O)[nH]c3ccccc3c21
> 5 µM (inactive) | O=C(NCc1ccc(Cl)cc1)c1ccc(N2CCCS2(=O)=O)cc1
7.12 µM | COc1ccc(NC(=O)Cn2c(CS(=O)(=O)c3ccc(C)cc3)nc3ccccc32)cc1
0.148 µM | Cc1c(OCC(=O)Nc2nc3ccccc3[nH]2)ccc2c3c(c(=O)oc12)CCC3
37.8 µM | CN(C)c1cc(-n2cnc(C(=O)NCc3ccccc3Cl)c2)ncn1
> 50 µM (inactive) | N#Cc1cccc(NC(=O)Cn2cccc(-c3nc(-c4ccccc4)no3)c2=O)c1
32.7 µM | COc1cc(-c2cc(C(=O)Nc3cc(C)[nH]n3)c3ccccc3n2)cc(OC)c1OC
3.12 µM | COc1ccc(OC)c(-n2c(SCC(=O)N3CCc4ccccc43)nnc2-c2cccc(S(=O)(=O)N(C)C)c2)c1

IC50 | Compound
10.2 µM | COc1cc(Cl)ccc1C(=O)Nc1cccc(-n2cnnn2)c1C
> 50 µM (inactive) | COc1cccc(NC(=O)c2ccc(F)cc2Cl)c1
26.2 µM | COc1ccc(NS(=O)(=O)c2cc(NC(=O)CCc3nc4ccccc4s3)ccc2C)cc1
> 50 µM (inactive) | C=C(NC(=O)C(=C)NC(=O)c1csc(C2=N[C@@H]3c4csc(n4)[C@H]4NC(=O)c5csc(n5)[C@H]([C@](C)(O)[C@@H](C)O)NC(=O)C5CSC(=N5)/C(=C/C)NC(=O)C([C@@H](C)O)NC(=O)c5csc(n5)[C@]3(CC2)NC(=O)[C@H](C)NC(=O)C(=C)NC(=O)[C@H](C)NC(=O)C([C@@H](C)CC)NC2C=Cc3c(C(C)O)cc(nc3[C@H]2O)C(=O)OC4C)n1)C(N)=O (stereo not given in full)
> 50 µM (inactive) | C/C1=C/CC(O)/C=C/C(C)C(O)C(C)/C=C(\C)C(=O)c2c(O)c(C)cc3c2C(=O)C(Cl)=C(NC(=O)\C=C/C=C/C=C\C(C)C(O)CC1=O)C3=O (stereo not given)
4.57 µM | CC(=O)c1cc2c(=O)c3c(C(=O)O)c(O)c(O)cc3oc2c(C(C)=O)c1-c1coc2cc(O)c(O)c(C(=O)O)c2c1=O
14.1 µM | Oc1ccc(-c2nc3ccc(Cl)cn3c2NC2CCCCC2)cc1
1.16 µM | COc1ccc(NC(=O)c2cc(-c3cccnc3)n[nH]2)cc1Cl
> 50 µM (inactive) | O=S(=O)(c1ccccc1Cl)N1CCN(c2ccc3nnc(-c4ccco4)n3n2)CC1
0.674 µM | COc1ccc2cc1Oc1cc(ccc1OC)C(O)C13SSC4(C(=O)N1C)C(O)C1=COC=CC(OC2=O)C1N4C3=O (stereo not given)
> 50 µM (inactive) | O=C(NCc1ccc2c(c1)OCO2)c1nc(-c2ccccc2)n(-c2ccccc2)n1
23.1 µM | CCOc1ccccc1C(=O)Oc1ccc2c(C)cc(=O)oc2c1
> 50 µM (inactive) | Cc1ccc(-c2csc(-n3ncc(C(=O)N4CCN(C(=O)Nc5cccc6ccccc56)C(C)C4)c3C(C)C)n2)cc1 (stereo not given)
> 50 µM (inactive) | CC(C)CCn1c(=O)c2ccccc2n2c(CCC(=O)NC3CCCCCC3)nnc12
18.9 µM | COc1ccc(NC(=O)c2sc(N3CCOCC3)nc2-c2ccccc2)c(OC)c1
19.5 µM | COc1ccc(NC(=O)C2Oc3ccc(C)cc3NC2=O)cc1Cl (stereo not given)
3.88 µM | O=C(Nc1ccc(F)cc1)Nc1ccccc1OCc1cc(=O)n2ccccc2n1

Compound | IC50
CCCCCC(O)c1c(O)cc2c(c1O)C(=O)c1c(O)cc(O)cc1C2=O (stereo not given) | > 50 µM (inactive)
